Test results from PMC3139784 (Bioorganic & medicinal chemistry, 2011).

Assays:
[1] = system: U373MG cells expressing hiCE; assay: Growth inhibition assay with inhibitors and CPT-11; type: cell-based; settings: U373MGhiCE cells
hAChE = hAChE (Homo sapiens, UniProt P22303); assay: Inhibition of acetylcholinesterase; type: biochemical
hBChE = hBChE (Homo sapiens, UniProt P06276); assay: Inhibition of butyrylcholinesterase; type: biochemical
[2] = system: mammalian CEs (hCE1, hiCE, rCE); assay: CE inhibition across mammalian CEs; type: biochemical; settings: hCE1, hiCE or rCE, o-NPA substrate
[3] = Spontaneous hydrolysis in buffered aqueous solution; type: physicochemical; settings: within 5 mins of addition to buffered aqueous (pH 7.4) solution
CE = assay: Ability of compounds to act as CE substrates; type: biochemical; settings: 200 μM compound, 50 mM Hepes pH 7.4, data not shown

hAChE, sequence (P22303 32-614): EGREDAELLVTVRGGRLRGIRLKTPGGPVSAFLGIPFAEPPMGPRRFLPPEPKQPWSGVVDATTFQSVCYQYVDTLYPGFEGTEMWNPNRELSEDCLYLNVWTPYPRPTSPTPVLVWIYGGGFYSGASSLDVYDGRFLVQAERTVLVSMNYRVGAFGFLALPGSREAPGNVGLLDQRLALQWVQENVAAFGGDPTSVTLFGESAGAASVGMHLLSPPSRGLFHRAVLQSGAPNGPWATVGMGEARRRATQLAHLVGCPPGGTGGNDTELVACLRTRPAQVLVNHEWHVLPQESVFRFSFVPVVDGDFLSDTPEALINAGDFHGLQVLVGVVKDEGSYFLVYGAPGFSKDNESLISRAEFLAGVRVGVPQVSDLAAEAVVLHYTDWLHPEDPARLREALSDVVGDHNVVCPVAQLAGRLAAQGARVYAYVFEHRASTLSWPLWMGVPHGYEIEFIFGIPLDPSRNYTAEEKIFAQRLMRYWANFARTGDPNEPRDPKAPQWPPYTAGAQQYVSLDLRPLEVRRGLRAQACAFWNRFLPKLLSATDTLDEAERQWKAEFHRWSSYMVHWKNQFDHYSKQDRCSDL
hBChE, sequence (P06276 29-602): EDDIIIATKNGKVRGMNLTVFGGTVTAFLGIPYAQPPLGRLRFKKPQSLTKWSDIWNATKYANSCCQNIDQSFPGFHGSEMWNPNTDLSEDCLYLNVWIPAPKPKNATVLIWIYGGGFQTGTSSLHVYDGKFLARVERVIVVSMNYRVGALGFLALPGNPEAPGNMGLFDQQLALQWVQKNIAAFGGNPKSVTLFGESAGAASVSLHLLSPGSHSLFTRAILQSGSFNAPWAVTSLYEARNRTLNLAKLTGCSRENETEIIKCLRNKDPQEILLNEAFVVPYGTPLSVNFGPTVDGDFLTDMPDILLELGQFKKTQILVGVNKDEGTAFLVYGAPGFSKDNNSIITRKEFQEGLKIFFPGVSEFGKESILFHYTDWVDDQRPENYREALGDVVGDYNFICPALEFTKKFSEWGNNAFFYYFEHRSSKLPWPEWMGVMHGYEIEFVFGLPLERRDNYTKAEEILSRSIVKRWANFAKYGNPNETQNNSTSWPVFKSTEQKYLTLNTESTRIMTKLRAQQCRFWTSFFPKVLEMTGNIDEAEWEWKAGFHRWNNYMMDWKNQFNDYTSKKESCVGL

Row | SMILES | CE inhibition (in words) [2] | Compound hydrolyzed spontaneously [3] | Hydrolysis on addition of CE (in words) (CE) | other results
1 | O=C(C(=O)c1ccccc1)c1ccccc1 [Compound 1, Benzil, reference compound] |  |  |  | Reduction of toxicity of CPT-11 ([1]; versus CPT-11 alone): ~ 6 fold
2 | O=C(Nc1ccccc1)C(=O)Nc1ccccc1 [Compound 2, Oxanilide] | not an inhibitor |  |  | Activity towards hAChE (in words) (hAChE): lacked activity; Activity towards hBChE (in words) (hBChE): lacked activity
3 | O=C(Sc1ccccc1)C(=O)Sc1ccccc1 [Compound 3, S^1, S^2-Diphenyl ethane bis(thioate)] | ineffective at enzyme inhibition | greater than 40% | not enhanced | 
4 | O=C(Oc1ccccc1)C(=O)Oc1ccccc1 [Compound 4, Diphenyl ethanedioate] | ineffective at enzyme inhibition | greater than 40% | not enhanced | 
5 | CCCCCCC(=O)C(=O)CCCCCC [Compound 13, Tetradecane-7,8-dione] |  |  |  | Modulation of CPT-11 cytotoxicity (in words) ([1]; 10 μM inhibitor): ineffective
